Data on 1 compound can be found in PMC13252604, “First Generation Proteolysis Targeting Chimeras (PROTACs) for the Treatment of Progeria” (Advanced Science, 2026).

The test system of data set [1] is Lmna^G609G/G609G fibroblasts. Put plainly: Cell viability assay (MTT). The format is cell-based, mouse. The conditions noted are these: up to 50 µM, 24 h. As to the method:
(§1) Cpd!" 2 Cpd#$ 9 Cpd!" 2 Cpd#$ 9
(§2) Supporting Figure S3. Cellular cytotoxicity of compounds 2 and 9. Viability of progeroid […]/G609G and wild type Lmna+/+ fibroblasts treated with compounds at 5-50 µM for 24 h. Viability is expressed as the percentage relative to cells treated with vehicle (0.1% DMSO) which are considered 100% viable. Error bars represent the average±SD from three independent experiments carried out in duplicate.
(§3) (also on this page, place not known: !" #$**+,-./-*-01+234 !" #$**+,-./-*-01+234 Cpd2 Cpd2Cpd9 Cpd9) […]
(§4) was saturated at 100 ppm. Relative STD effects were calculated by comparing the intensity of the signals in the STD-NMR spectrum with signal intensities of the reference spectrum (off-resonance). The STD signal with the highest intensity was set to 100%, a nd other STD signals were calculated accordingly. […]
(§5) Cell viability was assessed as previously described.[64] […] Once supernatants were removed, formazan crystals previously formed by viable cells were dissolved in DMSO (100 μL/ well) and absorbance was measured at 570 nm (OD570-630) using an Asys UVM 340 (Biochrom Ltd., Cambridge, UK) microplate reader. Background absorbance from blank wells containing only media with compound or vehicle were subtracted from each test well. […]

In a further data set the test system is Lmna^+/+ fibroblasts. The data set is described as follows: Cell viability assay (MTT). The format is cell-based, mouse. The conditions noted are these: up to 50 µM, 24 h. As to the method:
as §1, §2, §3, §4, §5

Each structure is given as a SMILES string.

With `CC1(C)Oc2cc3oc(=O)ccc3cc2C[C@@H]1OC(=O)CCCCCNc1cccc2c1C(=O)N(C1CCC(=O)NC1=O)C2=O` (some centres unmarked) [compound 2], the “cytotoxicity (cell viability)” value (in data set [1]; in the data set on Lmna^+/+ fibroblasts) was “did not induce significant cytotoxicity” throughout.
